Data taken from US9056111B1, “Selective efflux inhibitors and related pharmaceutical compositions and methods of treatment” (STC.UNM, priority 2011, dated 2015).
“And” between values parts separate entries of the source, which are not always exact repeats. Identical values can stand only once. Like-named read-outs stand apart in the source and are kept apart here.

Columns and labels:
[1] = test system: ABCG2 over-expressing Ig-MXP3 cells; assay: Chemoreversal assay: potentiation of mitoxantrone (MTX) killing; format: cell-based; details: Ig-MXP3 cells
Jurkat-DNR cells = assay: Direct cytotoxicity (Toxic Dose 50) without chemotherapeutic
Procedure: Cells (ABCB1, Jurkat-DNR or ABCG2 Ig-MXP3) are incubated with the test compound (3 order of magnitude concentration range) over a 3-day and 7-day period in the presence of the inhibitor and chemotherapeutic (ABCB1, DNR or ABCG2 MTX), such that a cell concentration of at least 1×10^5 cells/mL is maintained. Cell viability is determined by trypan blue staining and enumeration under light microscopy. […] A chemoreversal index (Chemoreversal 50, CR50) is determined from the viability assessment. Using a similar approach, a direct cytotoxicity index (Toxic Dose 50, TD50) is determined by assessment of cell death of cells grown in media alone.
Cells (ABCB1, Jurkat-DNR or ABCG2 Ig-MXP3) were incubated with the test compound in a 3 order of magnitude concentration range over three and seven day periods in the presence of the inhibitor and chemotherapeutic (ABCB1, 100 nM DNR or ABCG2 30 nM MTX), such that a cell concentration of at least 1×10^5 cells mL^−1 was maintained. Cell viability was determined by trypan blue staining and enumeration under light microscopy. […] A chemoreversal index (Chemoreversal 50, CR50) was determined from the viability assessment. Using a similar approach, a direct cytotoxicity index (Toxic Dose 50, TD50) was determined by assessment of cell death of cells grown in media alone.

ABCB1 / ABCG2 = target: T1, ABCB1 / ABCG2 (Homo sapiens, UniProt Q9UNQ0); assay: JC-1 efflux inhibition dose response, flow cytometry, Ig-MXP3 cells; details: human, probe JC-1 (1 µM), ~Fold G2 Selective (B1/G2), quotient of average ABCB1 IC50 and average ABCG2 IC50, efflux assay
T1 sequence (Q9UNQ0 1-655): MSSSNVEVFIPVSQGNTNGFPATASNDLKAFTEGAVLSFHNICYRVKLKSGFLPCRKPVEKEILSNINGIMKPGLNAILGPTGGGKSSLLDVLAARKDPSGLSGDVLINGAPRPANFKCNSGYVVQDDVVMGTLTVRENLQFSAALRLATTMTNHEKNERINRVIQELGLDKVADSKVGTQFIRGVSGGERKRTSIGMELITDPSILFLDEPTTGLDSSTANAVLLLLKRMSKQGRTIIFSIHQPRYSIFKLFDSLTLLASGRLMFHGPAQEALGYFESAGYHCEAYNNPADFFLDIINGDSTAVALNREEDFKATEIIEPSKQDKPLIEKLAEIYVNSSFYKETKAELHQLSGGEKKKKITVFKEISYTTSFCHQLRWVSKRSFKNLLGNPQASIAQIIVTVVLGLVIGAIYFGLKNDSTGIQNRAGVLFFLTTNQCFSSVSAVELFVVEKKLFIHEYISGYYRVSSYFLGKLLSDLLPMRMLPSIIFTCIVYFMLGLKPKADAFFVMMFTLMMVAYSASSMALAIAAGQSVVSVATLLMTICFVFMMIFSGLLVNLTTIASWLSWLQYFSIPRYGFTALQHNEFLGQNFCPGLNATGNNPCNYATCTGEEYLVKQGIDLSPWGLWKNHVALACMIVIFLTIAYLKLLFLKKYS
Procedure: (§1) The HyperCyt® high throughput flow cytometry platform (IntelliCyt™, Albuquerque, N. Mex.) was used to sequentially sample cells from 384-well microplates (2 μL/sample) for flow cytometer presentation at a rate of 40 samples per minute.^62-63 Flow cytometric analysis was performed on a CyAn™ flow cytometer (Beckman-Coulter, Fullerton, Calif.). The resulting time-gated data files were analyzed with HyperView® software to determine compound activity in each well. Inhibition response curves were fitted by Prism® software (GraphPad Software, Inc., San Diego, Calif.) using nonlinear least-squares regression in a sigmoidal dose response model with variable slope, also known as the four-parameter logistic equation. This type of time-gated flow cytometric data analysis was described in detail for a previous ABC transporter screen from our group.^56
(§2) The assay provider's ABCB1 over-expressing Jurkat-DNR cell line is used for confirmatory follow up instead of the CCRF-Adr cells. Each cell line (Jurkat-DNR and Ig-MXP3) is run separately against all compounds (no differential cell staining) in dose response. The assay is conducted in 384-well format in a total volume of 15.1 μL. Cells and reagents are added sequentially as follows: 1) PBS buffer (5 μL/well); 2) test compound (100 nL/well); 3) drug-resistant cells (10 μL/well) pre-stained with the JC-1 substrate at 1 μM. […] Nicardipine (50 μM) is added to each plate as a pan-inhibition positive control.
(§3) Each cell line (Jurkat-DNR and Ig-MXP3) was run separately against all compounds (no differential cell staining) in dose-response. The protocol differed from the single point screen as describe here. Cells and reagents were added sequentially as follows: 1) PBS buffer (5 μL per well); 2) test compound (100 nL per well); 3) drug-resistant cells (10 μL, per well) pre-exposed to the JC-1 substrate at 1 μM just prior to the well addition.

ABCG2 = target: T2, ABCG2 (Homo sapiens, UniProt Q9UNQ0); assay: as above; details: for ~Fold G2 Selective (B1/G2): quotient of average ABCB1 IC50 and average ABCG2 IC50, efflux assay
T2 sequence (Q9UNQ0 1-655): T1 sequence (Q9UNQ0 1-655)
Procedure: as §1, §2, §3

ABCB1 = ABCB1 (Homo sapiens, UniProt P08183); assay: JC-1 efflux inhibition dose response, flow cytometry, Jurkat-DNR cells; details: for IC50: Jurkat-DNR cells over-expressing ABCB1, averages of two to four replicates; for efflux inhibition activity ABCB1: JC-1 efflux, Jurkat-DNR
ABCB1, sequence (P08183 whole entry): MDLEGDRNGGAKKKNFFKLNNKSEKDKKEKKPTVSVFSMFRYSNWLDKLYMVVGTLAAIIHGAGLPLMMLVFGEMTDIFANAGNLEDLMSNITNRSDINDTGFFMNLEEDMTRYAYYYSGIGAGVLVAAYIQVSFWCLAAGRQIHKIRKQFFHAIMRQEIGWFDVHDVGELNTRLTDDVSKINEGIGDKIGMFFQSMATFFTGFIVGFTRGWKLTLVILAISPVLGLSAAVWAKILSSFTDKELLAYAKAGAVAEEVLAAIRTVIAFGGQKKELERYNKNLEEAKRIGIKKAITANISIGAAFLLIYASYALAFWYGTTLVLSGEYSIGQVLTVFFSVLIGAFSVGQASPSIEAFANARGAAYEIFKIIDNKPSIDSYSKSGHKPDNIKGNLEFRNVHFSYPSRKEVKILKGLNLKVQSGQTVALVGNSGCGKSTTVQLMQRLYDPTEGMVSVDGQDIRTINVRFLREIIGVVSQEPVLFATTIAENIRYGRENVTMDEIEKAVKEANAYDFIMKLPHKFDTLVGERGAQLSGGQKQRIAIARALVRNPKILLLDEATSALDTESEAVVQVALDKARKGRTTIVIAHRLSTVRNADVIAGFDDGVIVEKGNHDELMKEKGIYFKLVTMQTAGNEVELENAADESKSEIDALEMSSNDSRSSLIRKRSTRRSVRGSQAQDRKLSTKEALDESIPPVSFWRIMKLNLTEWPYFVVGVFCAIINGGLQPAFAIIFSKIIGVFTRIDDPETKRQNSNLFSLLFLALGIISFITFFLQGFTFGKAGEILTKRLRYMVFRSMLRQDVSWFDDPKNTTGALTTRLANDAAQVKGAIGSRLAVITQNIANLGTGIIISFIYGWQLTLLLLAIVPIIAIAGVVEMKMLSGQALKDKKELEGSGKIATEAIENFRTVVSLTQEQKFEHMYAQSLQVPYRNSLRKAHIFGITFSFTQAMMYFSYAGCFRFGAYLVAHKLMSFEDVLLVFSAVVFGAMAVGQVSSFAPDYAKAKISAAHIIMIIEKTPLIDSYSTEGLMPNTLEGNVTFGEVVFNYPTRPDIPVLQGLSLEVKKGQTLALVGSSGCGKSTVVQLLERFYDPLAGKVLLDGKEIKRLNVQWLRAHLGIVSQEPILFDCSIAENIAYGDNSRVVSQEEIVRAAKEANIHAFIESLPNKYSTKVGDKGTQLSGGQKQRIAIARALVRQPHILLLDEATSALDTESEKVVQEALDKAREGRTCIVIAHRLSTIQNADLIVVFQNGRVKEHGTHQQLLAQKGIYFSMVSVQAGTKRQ
Procedure: as §1
The assay provider's ABCB1 over-expressing Jurkat-DNR cell line is used for confirmatory follow up instead of the CCRF-Adr cells. Each cell line (Jurkat-DNR and Ig-MXP3) is run separately against all compounds (no differential cell staining) in dose response. The assay is conducted in 384-well format in a total volume of 15.1 μL. Cells and reagents are added sequentially as follows: 1) PBS buffer (5 μL/well); 2) test compound (100 nL/well); 3) drug-resistant cells (10 μL/well) pre-stained with the JC-1 substrate at 1 μM. Final in-well concentrations of test compound range from 50 μM to 69 nM over an 18 point dose response and the cell concentration is 1×10^6 cells/mL. Nicardipine (50 μM) is added to each plate as a pan-inhibition positive control. The plate is rotated end-over-end at 4 RPM and 25° C. for 30 minutes and then cell samples are analyzed and flow cytometric data of light scatter and fluorescence emission at 530+/−20 nm (488 nm excitation, FL1) are collected.
as §3, with “addition. Final in-well concentrations of test compound ranged from 50 μM to 69 nM over an 18 point dose-response and the cell concentration was 1×10^6 cells mL^−1.” for “addition.”

Ig-MXP3 cells = assay: Direct cytotoxicity (Toxic Dose 50) without chemotherapeutic; format: cell-based
[2] = test system: ABCB1 over-expressing Jurkat-DNR cells; assay: Chemoreversal assay: potentiation of daunorubicin (DNR) killing; format: cell-based
[3] = constant 30 nM MTX, varied inhibitor dose, read-out: CR50 ABCG2
[4] = Jurkat-DNR cells, inhibitor without chemotherapeutic
[5] = IC50 ABCB1 (efflux inhibition of JC-1 substrate)
[6] = Ig-MXP3 cells, inhibitor without chemotherapeutic
[7] = read-out: IC50 ABCG2 (efflux inhibition of JC-1 substrate), Ig-MXP3 cells over-expressing ABCG2, averages of two to four replicates
[8] = read-out: IC50 ABCB1 (efflux inhibition of JC-1 substrate)
[9] = constant 100 nM DNR, varied inhibitor dose, read-out: CR50 ABCB1

## Cc1nc2cc(-c3cccc(Cl)c3)nn2c(N2CCN(C(=O)c3ccco3)CC2)c1C [Compound 9]
[1]; [3]
  EC50: 170 nM
Jurkat-DNR cells; [4]
  TD50 ABCB1: >100 µM
ABCB1 / ABCG2
  selectivity ratio at 30 min: 3.2
ABCG2
  IC50: 2650 ± 1070 nM
ABCB1; [5]
  IC50: 8400 ± 700 nM
Ig-MXP3 cells; [6]
  TD50 ABCG2: 47.40 µM

## COc1cc2c(cc1OC)CN(CCc1ccc(NC(=O)c3cccc(/C=c4\[nH]c(=O)/c(=C/c5ccccc5)n(C)c4=O)c3)cc1)CC2 [Compound 2, reference compound]
[1]; values in nM, listed as XR9051, read-out: chemoreversal (CR50) ABCG2
  EC50: 700 nM
[1]; values in nM, read-out: chemoreversal (CR50) ABCG2
  EC50: 650 nM
Jurkat-DNR cells
  TD50 ABCB1: 1.97 µM
ABCG2; [7]
  IC50: 2270 ± 2050 nM
ABCG2; read-out: IC50 ABCG2 (efflux inhibition of JC-1 substrate), Ig-MXP3 cells over-expressing ABCG2, averages of two to four replicates, listed as XR9051
  IC50: 2300 nM
ABCB1; [8]
  IC50: 610 ± 430 nM
ABCB1; read-out: IC50 ABCB1 (efflux inhibition of JC-1 substrate), listed as XR9051
  IC50: 600 nM
[2]; values in nM, read-out: chemoreversal (CR50) ABCB1
  EC50: 10 nM
Ig-MXP3 cells
  TD50 ABCG2: 21.40 µM

## O=C(NCCCN1CCOCC1)c1cnn2c(-c3ccccc3)cc(-c3ccccc3)nc12 [Compound 6, reference compound]
[1]; constant 30 nM MTX, varied inhibitor dose, listed as reversan, read-out: CR50 ABCG2
  EC50: 3600 nM
[1]; [3]
  EC50: 3610 nM
Jurkat-DNR cells
  TD50 ABCB1: 7.04 µM
ABCG2; read-out: IC50 ABCG2 (efflux inhibition of JC-1 substrate), Ig-MXP3 cells over-expressing ABCG2, averages of two to four replicates, listed as reversan
  IC50: 800 nM and 840 nM
ABCB1; read-out: IC50 ABCB1 (efflux inhibition of JC-1 substrate), listed as reversan
  IC50: 4400 nM and 4410 nM
[2]; constant 100 nM DNR, varied inhibitor dose, listed as reversan, read-out: CR50 ABCB1
  EC50: 2200 nM
[2]; [9]
  EC50: 220 nM
Ig-MXP3 cells
  TD50 ABCG2: >100 µM

## COc1cccc(-c2cc3nc(-c4ccco4)cc(N4CCN(C(=O)c5ccoc5)CC4)n3n2)c1 [Compound 56]
[1]; [3]
  EC50: 1000 nM
Jurkat-DNR cells
  TD50 ABCB1: 5.52 µM
ABCG2
  ~Fold G2 Selective (B1/G2): 3.3 fold
ABCG2; [7]
  IC50: 2260 nM
ABCB1; [8]
  IC50: 7400 nM
[2]; [9]
  EC50: 470 nM
Ig-MXP3 cells
  TD50 ABCG2: >100 µM

## O=C(c1ccco1)N1CCN(c2cc(-c3ccccc3)nc3cc(-c4cccc(Cl)c4)nn23)CC1 [Compound 8]
[1]; [3]
  EC50: 140 nM
ABCG2
  ~Fold G2 Selective (B1/G2): 6.4 fold
ABCG2; [7]
  IC50: 960 nM
ABCB1; [8]
  IC50: 6180 nM
[2]; constant 100 nM DNR, varied inhibitor dose, listed as SID 85240370, read-out: CR50 ABCB1
  EC50: 700 nM
[2]; [9]
  EC50: 250 nM

## CN(C)C(=O)CCSC(SCCC(=O)O)c1cccc(/C=C/c2ccc3ccc(Cl)cc3n2)c1 (stereo not shown) [Compound 5, reference compound]
[1]; [3]
  EC50: 57400 nM
Jurkat-DNR cells; [4]
  TD50 ABCB1: 20.40 µM
ABCG2
  IC50: > 50000 nM
ABCG2; JC-1 efflux, Ig-MXP3
  efflux inhibition activity ABCG2: didn't observe any inhibition
ABCB1; [5]
  IC50: > 50000 nM
ABCB1
  efflux inhibition activity ABCB1: didn't observe any inhibition
ABCB1; [8]
  IC50: > 50000 nM
[2]; [9]
  EC50: 20400 nM
Ig-MXP3 cells; [6]
  TD50 ABCG2: 57.40 µM

## O=C1CN(c2cc(-c3ccco3)nc3cc(-c4ccccc4)nn23)CCN1c1ccccc1 [Compound 83]
ABCB1 / ABCG2
  selectivity ratio at 30 min: 2.5
ABCG2
  IC50: 1640 ± 520 nM
ABCB1; [5]
  IC50: 4060 ± 1780 nM

## O=C(c1cccc(Cl)c1)N1CCN(c2cc(-c3ccccc3)nc3cc(-c4cccc(Cl)c4)nn23)CC1 [Compound 18]
ABCB1 / ABCG2
  selectivity ratio at 30 min: 1.4
ABCG2
  IC50: 2950 ± 570 nM
ABCB1; [5]
  IC50: 4190 ± 1880 nM

## O=C(OCc1ccccc1)N1CCN(c2cc(-c3ccco3)nc3cc(-c4ccccc4)nn23)CC1 [Compound 76]
ABCB1 / ABCG2
  selectivity ratio at 30 min: ~19
ABCG2
  IC50: 2710 ± 1950 nM
  ~Fold G2 Selective (B1/G2): 18.5 fold
ABCB1; [5]
  IC50: > 50000 nM
ABCB1
  efflux inhibition activity ABCB1: completely lost

## O=C(C1CCCCC1)N1CCN(c2cc(-c3ccccc3)nc3cc(-c4cccc(Cl)c4)nn23)CC1 [Compound 22]
ABCB1 / ABCG2
  selectivity ratio at 30 min: 1.2
ABCG2
  IC50: 2670 ± 1260 nM
ABCB1; [5]
  IC50: 3310 ± 1860 nM

## O=C(c1ccc(Cl)cc1)N1CCN(c2cc(-c3ccccc3)nc3cc(-c4cccc(Cl)c4)nn23)CC1 [Compound 19]
ABCB1 / ABCG2
  selectivity ratio at 30 min: 0.9
ABCG2
  IC50: 2670 ± 850 nM
ABCB1; [5]
  IC50: 2360 ± 700 nM

## CC(C)(C)c1cc2nc(-c3ccco3)cc(N3CCN(C(=O)c4ccoc4)CC3)n2n1 [Compound 50]
ABCB1 / ABCG2
  selectivity ratio at 30 min: 1.7
ABCG2
  IC50: 1970 nM
ABCB1; [5]
  IC50: 3310 nM

## Cc1ccc(-c2cc3nc(-c4ccco4)cc(N4CCN(C(=O)c5ccoc5)CC4)n3n2)cc1 [Compound 59]
ABCB1 / ABCG2
  selectivity ratio at 30 min: 2.2
ABCG2
  IC50: 5190 ± 4220 nM
ABCB1; [5]
  IC50: 11300 nM

## COc1ccc2c3c([nH]c2c1)[C@H](CC(C)C)N1C(=O)[C@H](CCC(=O)OC(C)(C)C)NC(=O)[C@@H]1C3 [Compound 4, reference compound]
Jurkat-DNR cells; [4]
  TD50 ABCB1: 2.84 µM
Ig-MXP3 cells; [6]
  TD50 ABCG2: 20.00 µM

## O=C(c1ccoc1)N1CCN(c2cc(-c3ccc(F)cc3)nc3cc(-c4cccc(Cl)c4)nn23)CC1 [Compound 27]
ABCB1 / ABCG2
  selectivity ratio at 30 min: 2.3
ABCG2
  IC50: 2410 ± 520 nM
ABCB1; [5]
  IC50: 5650 ± 110 nM
